Data reported in US20160296499A1, “Spiroindoline Antiparasitic Derivatives” (ZOETIS SERVICES LLC, priority 2013, published 2016).
pKi: −log10 of the molar value. Like-named read-outs stand apart in the source and are kept apart here.

Assays:
[1] = system: Dirofilaria immitis microfilariae; assay: Dirofilaria immitis, Microfilariae (DiMF) In Vitro Assay; conditions: Dirofilaria immitis
[2] = molecular target: T1, bovine vesicular acetylcholine transporter (VAChT) (Bos taurus, UniProt E1BK36); assay: Radioligand Binding Assay; conditions: Bovine binding Ki, CHO-K1 membranes with recombinant bovine VAChT, [3H]Compound X6 0.3 nM
T1 sequence (E1BK36 1-524): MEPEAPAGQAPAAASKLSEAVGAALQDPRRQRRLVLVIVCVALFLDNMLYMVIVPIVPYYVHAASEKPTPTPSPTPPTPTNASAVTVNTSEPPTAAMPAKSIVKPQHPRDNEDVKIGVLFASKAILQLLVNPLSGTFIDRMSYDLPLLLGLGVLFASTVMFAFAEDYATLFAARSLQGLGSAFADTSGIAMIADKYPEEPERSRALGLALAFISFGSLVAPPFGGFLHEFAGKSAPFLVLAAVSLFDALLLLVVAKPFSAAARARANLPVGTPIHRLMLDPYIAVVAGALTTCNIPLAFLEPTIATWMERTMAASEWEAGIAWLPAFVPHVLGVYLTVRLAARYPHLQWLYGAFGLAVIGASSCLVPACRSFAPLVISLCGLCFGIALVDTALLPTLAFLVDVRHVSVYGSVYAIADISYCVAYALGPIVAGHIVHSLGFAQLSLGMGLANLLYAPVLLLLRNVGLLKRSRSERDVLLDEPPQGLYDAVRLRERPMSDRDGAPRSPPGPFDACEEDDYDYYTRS

[3] = system: Haemonchus contortus L3; assay: Haemonchus contortus, Larvae Stage 3 (HcL3) In Vitro Assay; conditions: Haemonchus contortus
[4] = 72 h, read-out: Di MF, MEC, decrease in microfilariae motility by visual assessment, curve starting at 100 μM
[5] = 96 h, read-out: HcL3 MEC, Minimal Effective Concentration whereby worm motility is inhibited by approximately 70%, 37° C., tested 0.001-100 μM

SMILES	minimal effective concentration [1, 4]	pKi [2]	minimal effective concentration [3, 5]	minimal effective concentration ([1]; 72 hours, read-out: Di MF)	minimal effective concentration ([3]; 96 hours, 37° C., read-out: HcL3 MEC)
O=C(NCc1cnc(Cl)s1)N1CC2(CCN(C/C=C/c3ccc(Cl)cc3)CC2)c2c(OC(F)(F)F)cccc21 [Example 95, (E)-1′-(3-(4-chlorophenyl)allyl)-N-((2-chlorothiazol-5-yl)methyl)-4-(trifluoromethoxy)spiro[indoline-3,4′-piperidine]-1-carboxamide]	3.3 µM	6.00	100 µM	–	–
N#Cc1ccc(/C=C/CN2CCC3(CC2)CN(C(=O)NCc2ccnc(Cl)c2)c2cc(-c4ccccc4C(F)(F)F)ccc23)cc1 [Example 96, (E)-N-((2-chloropyridin-4-yl)methyl)-1′-(3-(4-cyanophenyl)allyl)-6-(2-(trifluoromethyl)phenyl)spiro[indoline-3,4′-piperidine]-1-carboxamide]	5.7 µM	7.60	100 µM	–	–
N#Cc1ccc(/C=C/CN2CCC3(CC2)CN(C(=O)NCc2ccnc(Cl)c2)c2ccc([N+](=O)[O-])cc23)cc1 [Example 97, (E)-N-((2-chloropyridin-4-yl)methyl)-1′-(3-(4-cyanophenyl)allyl)-5-nitrospiro[indoline-3,4′-piperidine]-1-carboxamide]	5.7 µM	7.20	33 µM	–	–
N#Cc1ccc(/C=C/CN2CCC3(CC2)CN(C(=O)NCc2ccnc(Cl)c2)c2c(F)ccc(C(F)(F)F)c23)cc1 [Example 98, (E)-N-((2-chloropyridin-4-yl)methyl)-1′-(3-(4-cyanophenyl)allyl)-7-fluoro-4-(trifluoromethyl)spiro[indoline-3,4′-piperidine]-1-carboxamide]	10 µM	5.80	100 µM	–	–
N#Cc1ccc(/C=C/CN2CCC3(CC2)CN(C(=O)NCc2ccnc(Cl)c2)c2cccc(C(F)(F)F)c23)cc1 [Example 99, (E)-N-((2-chloropyridin-4-yl)methyl)-1′-(3-(4-cyanophenyl)allyl)-4-(trifluoromethyl)spiro[indoline-3,4′-piperidine]-1-carboxamide]	5.7 µM	6.51	10 µM	–	–
O=C(NCc1ccnc(F)c1)N1CC2(CCN(C/C=C/c3ccc(F)cc3)CC2)c2ccc(OC(F)(F)F)cc21 [Example 100, (E)-1′-(3-(4-fluorophenyl)allyl)-N-((2-fluoropyridin-4-yl)methyl)-6-(trifluoromethoxy)spiro[indoline-3,4′-piperidine]-1-carboxamide]	10 µM	6.92	3.3 µM	–	–
O=C(NCc1ccnc(F)c1)N1CC2(CCN(C/C=C/c3ccc(F)cc3)CC2)c2ccc(C(F)(F)F)cc21 [Example 101, (E)-1′-(3-(4-fluorophenyl)allyl)-N-((2-fluoropyridin-4-yl)methyl)-6-(trifluoromethyl)spiro[indoline-3,4′-piperidine]-1-carboxamide]	–	7.19	–	10 µM	3.3 µM
O=C(NCc1ccnc(Cl)c1)N1CC2(CCN(C/C=C/c3ccc(Cl)c(Cl)c3)CC2)c2c(Br)cccc21 [Example 102, (E)-4-bromo-N-((2-chloropyridin-4-yl)methyl)-1′-(3-(3,4-dichlorophenyl)allyl)spiro[indoline-3,4′-piperidine]-1-carboxamide]	10 µM	6.84	5.3 µM	–	–
O=C(NCc1ccnc(F)c1)N1CC2(CCN(C/C=C/c3ccc(Cl)c(Cl)c3)CC2)c2c(Br)cccc21 [Example 103, 4-bromo-1′-[(E)-3-(3,4-dichlorophenyl)allyl]-N-[(2-fluoro-4-pyridyl)methyl]spiro[indoline-3,4′-piperidine]-1-carboxamide]	5.7 µM	6.33	3.3 µM	–	–
